Test results from article PMC4767141, “Discovery of Potent, Orally Bioavailable, Small-Molecule Inhibitors of WNT Signaling from a Cell-Based Pathway Screen” (Journal of Medicinal Chemistry, 2015).

Assays:
GABA (non-selective) = experiment: CEREP binding panel; settings: 10 μM, agonist radioligand
CCR1 (h) = target: T1, CCR1 (h) (Homo sapiens, UniProt P32246); experiment: CEREP binding panel; settings: agonist radioligand, read-out: % Inhibition of Control Specific Binding
T1 construct: purchased Millipore KinaseProfiler (kinases); Cerep (receptors and ion channels)

MT1 (ML1A) (h) = target: T2, MT1 (ML1A) (h) (Homo sapiens, UniProt P48039); experiment: CEREP binding panel; settings: agonist radioligand, read-out: % Inhibition of Control Specific Binding
T2 construct: purchased Millipore KinaseProfiler (kinases); Cerep (receptors and ion channels)

M2 (h) = target: T3, M2 (h) (Homo sapiens, UniProt P08172); experiment: CEREP binding panel; settings: antagonist radioligand, read-out: % Inhibition of Control Specific Binding
T3 construct: purchased Millipore KinaseProfiler (kinases); Cerep (receptors and ion channels)

NK3 (h) = target: T4, NK3 (h) (Homo sapiens, UniProt P29371); experiment: CEREP binding panel; settings: antagonist radioligand, read-out: % Inhibition of Control Specific Binding
T4 construct: purchased Millipore KinaseProfiler (kinases); Cerep (receptors and ion channels)

κ (KOP) = target: T5, κ (KOP) (Rattus norvegicus, UniProt P34975); experiment: CEREP binding panel; settings: agonist radioligand, read-out: % Inhibition of Control Specific Binding
T5 construct: purchased Millipore KinaseProfiler (kinases); Cerep (receptors and ion channels)

5-HT2B (h) = target: T6, 5-HT2B (h) (Homo sapiens, UniProt P41595); experiment: CEREP binding panel; settings: agonist radioligand, read-out: % Inhibition of Control Specific Binding
T6 construct: purchased Millipore KinaseProfiler (kinases); Cerep (receptors and ion channels)

SKCa channel = experiment: CEREP binding panel; settings: 10 μM, antagonist radioligand
5-HT transporter (h) = target: T7, 5-HT transporter (h) (Homo sapiens, UniProt P31645); experiment: CEREP binding panel; settings: antagonist radioligand, read-out: % Inhibition of Control Specific Binding
T7 construct: purchased Millipore KinaseProfiler (kinases); Cerep (receptors and ion channels)
T7 sequence (P31645 whole entry): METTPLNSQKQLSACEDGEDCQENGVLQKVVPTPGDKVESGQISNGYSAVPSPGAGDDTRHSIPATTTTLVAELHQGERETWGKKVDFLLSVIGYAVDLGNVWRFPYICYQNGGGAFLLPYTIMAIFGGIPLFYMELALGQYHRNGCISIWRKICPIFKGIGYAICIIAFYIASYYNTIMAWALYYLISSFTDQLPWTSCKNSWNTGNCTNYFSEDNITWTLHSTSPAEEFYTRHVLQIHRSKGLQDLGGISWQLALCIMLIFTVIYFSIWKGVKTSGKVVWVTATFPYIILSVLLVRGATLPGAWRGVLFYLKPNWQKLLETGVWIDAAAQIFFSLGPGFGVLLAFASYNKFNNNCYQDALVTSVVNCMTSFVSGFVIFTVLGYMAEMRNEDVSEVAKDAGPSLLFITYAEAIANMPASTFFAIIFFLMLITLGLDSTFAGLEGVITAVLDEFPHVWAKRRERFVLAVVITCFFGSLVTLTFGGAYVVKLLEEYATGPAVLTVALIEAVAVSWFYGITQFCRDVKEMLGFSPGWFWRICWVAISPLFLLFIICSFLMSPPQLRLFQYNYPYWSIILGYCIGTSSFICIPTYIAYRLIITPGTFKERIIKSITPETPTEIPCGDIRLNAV

ABL = target: T8, ABL (Homo sapiens, UniProt P00519); experiment: Millipore kinase panel; type: biochemical; settings: read-out: % Control
T8 construct: purchased Millipore KinaseProfiler (kinases); Cerep (receptors and ion channels)

ALK = target: T9, ALK (Homo sapiens, UniProt Q9UM73); experiment: Millipore kinase panel; type: biochemical; settings: read-out: % Control
T9 construct: purchased Millipore KinaseProfiler (kinases); Cerep (receptors and ion channels)
T9 sequence (Q9UM73 19-1620): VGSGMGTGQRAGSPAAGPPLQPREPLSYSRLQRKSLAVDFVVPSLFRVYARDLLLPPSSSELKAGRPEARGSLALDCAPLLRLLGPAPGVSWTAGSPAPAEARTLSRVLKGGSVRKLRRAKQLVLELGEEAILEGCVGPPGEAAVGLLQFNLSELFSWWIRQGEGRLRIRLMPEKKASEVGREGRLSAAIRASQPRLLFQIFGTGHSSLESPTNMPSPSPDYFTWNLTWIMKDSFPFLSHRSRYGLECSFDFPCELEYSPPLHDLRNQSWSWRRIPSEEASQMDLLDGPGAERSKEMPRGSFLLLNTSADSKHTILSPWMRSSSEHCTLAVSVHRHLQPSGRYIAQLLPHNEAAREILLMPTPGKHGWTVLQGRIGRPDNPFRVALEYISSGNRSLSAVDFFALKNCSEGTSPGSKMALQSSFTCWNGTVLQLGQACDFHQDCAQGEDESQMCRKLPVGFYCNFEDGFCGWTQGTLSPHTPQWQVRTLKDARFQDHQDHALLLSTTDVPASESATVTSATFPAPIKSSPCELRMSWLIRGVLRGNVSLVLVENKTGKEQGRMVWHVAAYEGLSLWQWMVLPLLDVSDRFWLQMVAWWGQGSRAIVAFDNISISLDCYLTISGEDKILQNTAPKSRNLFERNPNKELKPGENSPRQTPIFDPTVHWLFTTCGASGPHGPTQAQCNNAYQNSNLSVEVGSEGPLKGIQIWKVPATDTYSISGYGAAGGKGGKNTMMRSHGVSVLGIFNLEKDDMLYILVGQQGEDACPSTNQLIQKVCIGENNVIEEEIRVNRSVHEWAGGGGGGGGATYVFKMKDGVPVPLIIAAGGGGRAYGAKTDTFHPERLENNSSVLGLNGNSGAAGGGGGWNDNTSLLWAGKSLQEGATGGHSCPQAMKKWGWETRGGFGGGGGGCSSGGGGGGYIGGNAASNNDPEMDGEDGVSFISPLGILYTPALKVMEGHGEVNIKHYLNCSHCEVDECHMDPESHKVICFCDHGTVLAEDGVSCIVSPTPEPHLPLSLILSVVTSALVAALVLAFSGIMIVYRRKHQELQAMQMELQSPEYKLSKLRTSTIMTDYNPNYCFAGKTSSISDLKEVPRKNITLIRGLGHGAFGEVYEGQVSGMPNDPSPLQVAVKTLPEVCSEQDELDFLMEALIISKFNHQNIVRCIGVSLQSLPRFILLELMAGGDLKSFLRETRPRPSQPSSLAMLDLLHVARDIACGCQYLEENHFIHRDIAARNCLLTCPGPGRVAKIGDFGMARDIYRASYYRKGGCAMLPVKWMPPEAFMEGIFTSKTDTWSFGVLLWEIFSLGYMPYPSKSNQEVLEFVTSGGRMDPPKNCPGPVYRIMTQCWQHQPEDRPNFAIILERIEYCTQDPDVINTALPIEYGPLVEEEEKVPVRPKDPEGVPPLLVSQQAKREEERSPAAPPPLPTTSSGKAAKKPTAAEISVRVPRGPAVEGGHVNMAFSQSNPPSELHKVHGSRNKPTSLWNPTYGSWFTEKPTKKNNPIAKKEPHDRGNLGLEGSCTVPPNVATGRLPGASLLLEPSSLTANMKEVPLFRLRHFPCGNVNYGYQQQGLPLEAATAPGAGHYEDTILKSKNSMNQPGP

ALK4 = target: T10, ALK4 (Homo sapiens, UniProt P36896); experiment: Millipore kinase panel; type: biochemical; settings: read-out: % Control
T10 construct: purchased Millipore KinaseProfiler (kinases); Cerep (receptors and ion channels)

ARK5 = target: T11, ARK5 (Homo sapiens, UniProt O60285); experiment: Millipore kinase panel; type: biochemical; settings: read-out: % Control
T11 construct: purchased Millipore KinaseProfiler (kinases); Cerep (receptors and ion channels)

CDK5/P25 = target: T12, CDK5/P25 (Homo sapiens, UniProt Q00535); experiment: Millipore kinase panel; type: biochemical; settings: read-out: % Control
T12 construct: purchased Millipore KinaseProfiler (kinases); Cerep (receptors and ion channels)

CDK6/CYCLIND3 = target: T13, CDK6/CYCLIND3 (Homo sapiens, UniProt Q00534); experiment: Millipore kinase panel; type: biochemical; settings: read-out: % Control
T13 construct: purchased Millipore KinaseProfiler (kinases); Cerep (receptors and ion channels)

CDK7/CYCLINH/MAT1 = target: T14, CDK7/CYCLINH/MAT1 (Homo sapiens, UniProt P50613); experiment: Millipore kinase panel; type: biochemical; settings: read-out: % Control
T14 construct: purchased Millipore KinaseProfiler (kinases); Cerep (receptors and ion channels)

CDK9/CYCLINT1 = target: T15, CDK9/CYCLINT1 (Homo sapiens, UniProt P50750); experiment: Millipore kinase panel; type: biochemical; settings: read-out: % Control
T15 construct: purchased Millipore KinaseProfiler (kinases); Cerep (receptors and ion channels)

DMPK = target: T16, DMPK (Homo sapiens, UniProt Q09013); experiment: Millipore kinase panel; type: biochemical; settings: read-out: % Control
T16 construct: purchased Millipore KinaseProfiler (kinases); Cerep (receptors and ion channels)

EPHA8 = target: T17, EPHA8 (Homo sapiens, UniProt P29322); experiment: Millipore kinase panel; type: biochemical; settings: read-out: % Control
T17 construct: purchased Millipore KinaseProfiler (kinases); Cerep (receptors and ion channels)

ERBB4 = target: T18, ERBB4 (Homo sapiens, UniProt Q15303); experiment: Millipore kinase panel; type: biochemical; settings: read-out: % Control
T18 construct: purchased Millipore KinaseProfiler (kinases); Cerep (receptors and ion channels)

FER = target: T19, FER (Homo sapiens, UniProt P16591); experiment: Millipore kinase panel; type: biochemical; settings: read-out: % Control
T19 construct: purchased Millipore KinaseProfiler (kinases); Cerep (receptors and ion channels)

FYN = target: T20, FYN (Homo sapiens, UniProt P06241); experiment: Millipore kinase panel; type: biochemical; settings: read-out: % Control
T20 construct: purchased Millipore KinaseProfiler (kinases); Cerep (receptors and ion channels)

LCK = target: T21, LCK (Homo sapiens, UniProt P06239); experiment: Millipore kinase panel; type: biochemical; settings: read-out: % Control
T21 construct: purchased Millipore

LOK = target: T22, LOK (Homo sapiens, UniProt O94804); experiment: Millipore kinase panel; type: biochemical; settings: read-out: % Control
T22 construct: purchased Millipore KinaseProfiler (kinases); Cerep (receptors and ion channels)

MINK = target: T23, MINK (Homo sapiens, UniProt Q8N4C8); experiment: Millipore kinase panel; type: biochemical; settings: read-out: % Control
T23 construct: purchased Millipore KinaseProfiler (kinases); Cerep (receptors and ion channels)

MLCK = target: T24, MLCK (Homo sapiens, UniProt Q9H1R3); experiment: Millipore kinase panel; type: biochemical; settings: read-out: % Control
T24 construct: purchased Millipore KinaseProfiler (kinases); Cerep (receptors and ion channels)

MRCKBETA = target: T25, MRCKBETA (Homo sapiens, UniProt Q9Y5S2); experiment: Millipore kinase panel; type: biochemical; settings: read-out: % Control
T25 construct: purchased Millipore KinaseProfiler (kinases); Cerep (receptors and ion channels)

MSK1 = target: T26, MSK1 (Homo sapiens, UniProt O75582); experiment: Millipore kinase panel; type: biochemical; settings: read-out: % Control
T26 construct: purchased Millipore KinaseProfiler (kinases); Cerep (receptors and ion channels)

PAK2 = target: T27, PAK2 (Homo sapiens, UniProt Q13177); experiment: Millipore kinase panel; type: biochemical; settings: read-out: % Control
T27 construct: purchased Millipore KinaseProfiler (kinases); Cerep (receptors and ion channels)

PAK5 = target: T28, PAK5 (Homo sapiens, UniProt Q9P286); experiment: Millipore kinase panel; type: biochemical; settings: read-out: % Control
T28 construct: purchased Millipore KinaseProfiler (kinases); Cerep (receptors and ion channels)

PAK6 = target: T29, PAK6 (Homo sapiens, UniProt Q9NQU5); experiment: Millipore kinase panel; type: biochemical; settings: read-out: % Control
T29 construct: purchased Millipore KinaseProfiler (kinases); Cerep (receptors and ion channels)

PKCZETA = target: T30, PKCZETA (Homo sapiens, UniProt Q05513); experiment: Millipore kinase panel; type: biochemical; settings: read-out: % Control
T30 construct: purchased Millipore KinaseProfiler (kinases); Cerep (receptors and ion channels)

PRK2 = target: T31, PRK2 (Homo sapiens, UniProt Q16513); experiment: Millipore kinase panel; type: biochemical; settings: read-out: % Control
T31 construct: purchased Millipore KinaseProfiler (kinases); Cerep (receptors and ion channels)

PTK5 = target: T32, PTK5 (Homo sapiens, UniProt P42685); experiment: Millipore kinase panel; type: biochemical; settings: read-out: % Control
T32 construct: purchased Millipore KinaseProfiler (kinases); Cerep (receptors and ion channels)

ROCK-I = target: T33, ROCK-I (Homo sapiens, UniProt Q13464); experiment: Millipore kinase panel; type: biochemical; settings: read-out: % Control
T33 construct: purchased Millipore KinaseProfiler (kinases); Cerep (receptors and ion channels)

RON = target: T34, RON (Homo sapiens, UniProt Q04912); experiment: Millipore kinase panel; type: biochemical; settings: read-out: % Control
T34 construct: purchased Millipore KinaseProfiler (kinases); Cerep (receptors and ion channels)
T34 sequence (Q04912 25-1400): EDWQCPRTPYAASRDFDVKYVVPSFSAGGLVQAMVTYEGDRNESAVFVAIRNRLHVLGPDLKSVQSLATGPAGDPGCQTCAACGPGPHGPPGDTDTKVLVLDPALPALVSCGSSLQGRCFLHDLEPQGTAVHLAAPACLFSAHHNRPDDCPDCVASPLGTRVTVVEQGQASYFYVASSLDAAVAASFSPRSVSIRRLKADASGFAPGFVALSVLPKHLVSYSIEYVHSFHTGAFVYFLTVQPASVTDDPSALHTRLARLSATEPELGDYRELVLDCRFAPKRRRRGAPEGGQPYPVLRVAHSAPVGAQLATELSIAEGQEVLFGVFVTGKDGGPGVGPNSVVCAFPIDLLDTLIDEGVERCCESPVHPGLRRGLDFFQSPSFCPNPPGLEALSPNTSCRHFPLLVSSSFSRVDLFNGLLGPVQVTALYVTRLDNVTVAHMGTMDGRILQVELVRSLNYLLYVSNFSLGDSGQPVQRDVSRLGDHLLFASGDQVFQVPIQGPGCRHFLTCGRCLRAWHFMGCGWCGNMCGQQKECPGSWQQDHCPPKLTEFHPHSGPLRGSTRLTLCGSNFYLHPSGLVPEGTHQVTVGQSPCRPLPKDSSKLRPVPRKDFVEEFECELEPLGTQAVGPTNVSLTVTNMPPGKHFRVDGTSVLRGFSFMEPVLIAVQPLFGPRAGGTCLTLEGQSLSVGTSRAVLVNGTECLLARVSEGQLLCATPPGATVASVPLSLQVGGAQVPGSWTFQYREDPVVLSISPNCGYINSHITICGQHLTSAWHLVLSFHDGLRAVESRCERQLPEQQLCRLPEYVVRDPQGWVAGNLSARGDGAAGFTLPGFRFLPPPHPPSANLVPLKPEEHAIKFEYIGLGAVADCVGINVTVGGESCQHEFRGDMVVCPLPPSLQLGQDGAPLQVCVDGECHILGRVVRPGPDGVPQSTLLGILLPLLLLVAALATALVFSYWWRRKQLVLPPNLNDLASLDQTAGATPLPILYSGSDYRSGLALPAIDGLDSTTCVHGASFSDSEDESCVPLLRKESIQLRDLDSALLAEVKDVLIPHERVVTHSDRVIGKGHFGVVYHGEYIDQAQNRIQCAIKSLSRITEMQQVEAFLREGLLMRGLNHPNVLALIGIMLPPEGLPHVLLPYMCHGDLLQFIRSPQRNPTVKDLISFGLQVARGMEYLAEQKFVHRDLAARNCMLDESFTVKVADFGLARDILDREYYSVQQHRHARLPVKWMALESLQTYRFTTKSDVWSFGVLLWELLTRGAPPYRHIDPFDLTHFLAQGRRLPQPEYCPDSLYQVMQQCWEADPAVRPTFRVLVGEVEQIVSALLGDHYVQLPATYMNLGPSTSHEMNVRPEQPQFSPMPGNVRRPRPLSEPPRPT

SRPK2 = target: T35, SRPK2 (Homo sapiens, UniProt P78362); experiment: Millipore kinase panel; type: biochemical; settings: read-out: % Control
T35 construct: purchased Millipore KinaseProfiler (kinases); Cerep (receptors and ion channels)
T35 sequence (P78362 whole entry): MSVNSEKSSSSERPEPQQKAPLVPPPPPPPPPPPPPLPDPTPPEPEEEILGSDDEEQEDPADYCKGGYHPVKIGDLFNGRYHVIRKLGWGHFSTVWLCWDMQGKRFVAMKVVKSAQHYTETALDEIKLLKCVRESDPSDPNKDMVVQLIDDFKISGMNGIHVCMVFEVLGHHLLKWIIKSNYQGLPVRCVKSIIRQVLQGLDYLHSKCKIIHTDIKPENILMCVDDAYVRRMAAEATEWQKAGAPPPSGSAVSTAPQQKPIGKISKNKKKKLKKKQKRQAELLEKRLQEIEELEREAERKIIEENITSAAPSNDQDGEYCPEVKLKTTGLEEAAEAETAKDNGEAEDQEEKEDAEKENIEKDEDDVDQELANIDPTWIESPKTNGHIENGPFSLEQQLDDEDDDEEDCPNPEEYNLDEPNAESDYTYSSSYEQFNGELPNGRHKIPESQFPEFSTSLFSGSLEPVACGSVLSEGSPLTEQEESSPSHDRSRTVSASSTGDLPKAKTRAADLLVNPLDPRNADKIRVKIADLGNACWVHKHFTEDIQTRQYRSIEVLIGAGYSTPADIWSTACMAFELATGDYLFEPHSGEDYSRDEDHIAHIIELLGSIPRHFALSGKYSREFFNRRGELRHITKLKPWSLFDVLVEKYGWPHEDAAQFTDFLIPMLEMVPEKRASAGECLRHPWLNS

STK33 = target: T36, STK33 (Homo sapiens, UniProt Q9BYT3); experiment: Millipore kinase panel; type: biochemical; settings: read-out: % Control
T36 construct: purchased Millipore KinaseProfiler (kinases); Cerep (receptors and ion channels)

TBK1 = target: T37, TBK1 (Homo sapiens, UniProt Q9UHD2); experiment: Millipore kinase panel; type: biochemical; settings: read-out: % Control
T37 construct: purchased Millipore KinaseProfiler (kinases); Cerep (receptors and ion channels)

YES = target: T38, YES (Homo sapiens, UniProt P07947); experiment: Millipore kinase panel; type: biochemical; settings: read-out: % Control
T38 construct: purchased Millipore KinaseProfiler (kinases); Cerep (receptors and ion channels)
T38 sequence (P07947 whole entry): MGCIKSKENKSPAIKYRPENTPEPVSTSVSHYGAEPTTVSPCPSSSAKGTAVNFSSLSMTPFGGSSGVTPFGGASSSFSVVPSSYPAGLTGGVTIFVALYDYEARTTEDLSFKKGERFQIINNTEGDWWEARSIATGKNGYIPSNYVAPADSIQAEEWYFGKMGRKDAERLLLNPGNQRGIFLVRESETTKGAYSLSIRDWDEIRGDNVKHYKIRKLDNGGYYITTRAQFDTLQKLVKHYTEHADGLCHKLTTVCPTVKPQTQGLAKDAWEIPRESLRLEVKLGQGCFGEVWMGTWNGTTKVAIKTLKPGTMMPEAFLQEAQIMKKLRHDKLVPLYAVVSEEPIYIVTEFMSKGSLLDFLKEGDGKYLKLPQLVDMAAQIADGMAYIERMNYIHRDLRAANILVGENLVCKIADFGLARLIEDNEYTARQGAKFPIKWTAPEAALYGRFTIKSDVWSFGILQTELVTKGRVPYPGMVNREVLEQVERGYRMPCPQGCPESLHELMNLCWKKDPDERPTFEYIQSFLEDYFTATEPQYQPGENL

PHKGAMMA2 = target: T39, PHKGAMMA2 (Homo sapiens, UniProt P15735); experiment: Millipore kinase panel; type: biochemical; settings: read-out: % Control
T39 construct: purchased Millipore KinaseProfiler (kinases); Cerep (receptors and ion channels)

ULK2 = target: T40, ULK2 (Homo sapiens, UniProt Q8IYT8); experiment: Millipore kinase panel; type: biochemical; settings: read-out: % Control
T40 construct: purchased Millipore KinaseProfiler (kinases); Cerep (receptors and ion channels)

IGF-1R, ACTIVATED = target: T41, IGF-1R, ACTIVATED (Homo sapiens, UniProt P08069); experiment: Millipore kinase panel; type: biochemical; settings: read-out: % Control
T41 construct: purchased Millipore KinaseProfiler (kinases); Cerep (receptors and ion channels)

O=C1NCCC12CCN(c1c(Cl)cncc1-c1ccc(N3CCOCC3)cc1)CC2 [Compound 44, 8-(3-Chloro-5-(4-morpholin-4-ylphenyl)pyridin-4-yl)-2,8-diazaspiro[4.5]decan-1-one]
% Inhibition of Control Specific Binding (GABA (non-selective)): 10% | inhibition at 10 µM (CCR1 (h)): 0% | inhibition at 10 µM (MT1 (ML1A) (h)): 17% | inhibition at 10 µM (M2 (h)): 24% | inhibition at 10 µM (NK3 (h)): 5% | inhibition at 10 µM (κ (KOP)): 42% | inhibition at 10 µM (5-HT2B (h)): -4% | % Inhibition of Control Specific Binding (SKCa channel): -6% | inhibition at 10 µM (5-HT transporter (h)): 17% | remaining activity at 1 µM (ABL): 4% | remaining activity at 1 µM (ALK): -6% | remaining activity at 1 µM (ALK4): 14% | remaining activity at 1 µM (ARK5): -2% | remaining activity at 1 µM (CDK5/P25): 0% | remaining activity at 1 µM (CDK6/CYCLIND3): 7% | remaining activity at 1 µM (CDK7/CYCLINH/MAT1): -10% | remaining activity at 1 µM (CDK9/CYCLINT1): -24% | remaining activity at 1 µM (DMPK): -7% | remaining activity at 1 µM (EPHA8): -3% | remaining activity at 1 µM (ERBB4): -9% | remaining activity at 1 µM (FER): 11% | remaining activity at 1 µM (FYN): 10% | remaining activity at 1 µM (LCK): 13% | remaining activity at 1 µM (LOK): -1% | remaining activity at 1 µM (MINK): 7% | remaining activity at 1 µM (MLCK): 1% | remaining activity at 1 µM (MRCKBETA): 4% | remaining activity at 1 µM (MSK1): 18% | remaining activity at 1 µM (PAK2): 12% | remaining activity at 1 µM (PAK5): 8% | remaining activity at 1 µM (PAK6): 13% | remaining activity at 1 µM (PKCZETA): 5% | remaining activity at 1 µM (PRK2): 17% | remaining activity at 1 µM (PTK5): 0% | remaining activity at 1 µM (ROCK-I): -7% | remaining activity at 1 µM (RON): 13% | remaining activity at 1 µM (SRPK2): 10% | remaining activity at 1 µM (STK33): 4% | remaining activity at 1 µM (TBK1): 5% | remaining activity at 1 µM (YES): -11% | remaining activity at 1 µM (PHKGAMMA2): 10% | remaining activity at 1 µM (ULK2): 10% | remaining activity at 1 µM (IGF-1R, ACTIVATED): 3%
